In PubChem BioAssay AID1919010 (Molecular Pharmacology Branch, DTP, NCI, 2023):

System: Hs578T complex spheroid growth, percent test/control
Assay: Anticancer human tumor Hs578T cell line growth inhibition [AhR];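 also: luminescent viability signal as a proxy for spheroid growth; spheroids exposed to agents for one week after three days of growth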
Conditions: for IC50: curve of first compound; for viability, T/C: stronger effect = lower value
Outline: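 Spheroids combined tumor cells with HUVEC endothelial cells and human MSCs as stroma. AhR antagonists were paired with standard or investigational drugs, each dosed in half-log steps down from near clinical Cmax, or from 10 microM where Cmax was unknown.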

[1] = second compound 0.1 µM, first compound 0.00949 µM
[2] = second compound 0.1 µM, first compound 0.03 µM
[3] = second compound 0.1 µM, first compound 0.0949 µM
[4] = second compound 0.1 µM, first compound 0.3 µM
[5] = second compound 0.1 µM, first compound 0.949 µM
[6] = second compound 0.1 µM, first compound 3 µM
[7] = second compound 0.316 µM, first compound 0.00949 µM
[8] = second compound 0.316 µM, first compound 0.03 µM
[9] = second compound 0.316 µM, first compound 0.0949 µM
[10] = second compound 0.316 µM, first compound 0.3 µM
[11] = second compound 0.316 µM, first compound 0.949 µM
[12] = second compound 0.316 µM, first compound 3 µM
[13] = second compound 1 µM, first compound 0.00949 µM
[14] = second compound 1 µM, first compound 0.03 µM
[15] = second compound 1 µM, first compound 0.0949 µM
[16] = second compound 1 µM, first compound 0.3 µM
[17] = second compound 1 µM, first compound 0.949 µM
[18] = second compound 1 µM, first compound 3 µM
[19] = second compound 3.16 µM, first compound 0.00949 µM
[20] = second compound 3.16 µM, first compound 0.03 µM
[21] = second compound 3.16 µM, first compound 0.0949 µM
[22] = second compound 3.16 µM, first compound 0.3 µM
[23] = second compound 3.16 µM, first compound 0.949 µM
[24] = second compound 3.16 µM, first compound 3 µM
[25] = second compound 10 µM, first compound 0.00949 µM
[26] = second compound 10 µM, first compound 0.03 µM
[27] = second compound 10 µM, first compound 0.0949 µM
[28] = second compound 10 µM, first compound 0.3 µM
[29] = second compound 10 µM, first compound 0.949 µM
[30] = second compound 10 µM, first compound 3 µM

**Q.** Which results are given for CC1COCCN1c1cc(C2(S(C)(=N)=O)CC2)nc(-c2ccnc3[nH]ccc23)n1 (stereo not given) + Cc1ccccc1N=Nc1ccc(NC(=O)c2ccnn2C)c(C)c1?
**A.** IC50 (second compound 0.1 µM): 9.25 µM; IC50 (second compound 0.316 µM): > 10 µM; IC50 (second compound 1 µM): 9.24 µM; IC50 (second compound 3.16 µM): > 10 µM; IC50 (second compound 10 µM): > 10 µM; viability, T/C (second compound 0.1 µM, first compound 0.0316 µM): 110%; viability, T/C (second compound 0.1 µM, first compound 0.1 µM): 102%; viability, T/C (second compound 0.1 µM, first compound 0.316 µM): 102%; viability, T/C (second compound 0.1 µM, first compound 1 µM): 96.6%; viability, T/C (second compound 0.1 µM, first compound 3.16 µM): 77.9%; viability, T/C (second compound 0.1 µM, first compound 10 µM): 47.9%; viability, T/C (second compound 0.316 µM, first compound 0.0316 µM): 101%; viability, T/C (second compound 0.316 µM, first compound 0.1 µM): 101%; viability, T/C (second compound 0.316 µM, first compound 0.316 µM): 100%; viability, T/C (second compound 0.316 µM, first compound 1 µM): 93.4%; viability, T/C (second compound 0.316 µM, first compound 3.16 µM): 76.9%; viability, T/C (second compound 0.316 µM, first compound 10 µM): 52.4%; viability, T/C (second compound 1 µM, first compound 0.0316 µM): 94.6%; viability, T/C (second compound 1 µM, first compound 0.1 µM): 102%; viability, T/C (second compound 1 µM, first compound 0.316 µM): 99.5%; viability, T/C (second compound 1 µM, first compound 1 µM): 86.3%; viability, T/C (second compound 1 µM, first compound 3.16 µM): 73.7%; viability, T/C (second compound 1 µM, first compound 10 µM): 48.1%; viability, T/C (second compound 3.16 µM, first compound 0.0316 µM): 85.4%; viability, T/C (second compound 3.16 µM, first compound 0.1 µM): 93.3%; viability, T/C (second compound 3.16 µM, first compound 0.316 µM): 89.7%; viability, T/C (second compound 3.16 µM, first compound 1 µM): 84.4%; viability, T/C (second compound 3.16 µM, first compound 3.16 µM): 69.2%; viability, T/C (second compound 3.16 µM, first compound 10 µM): 51.4%; viability, T/C (second compound 10 µM, first compound 0.0316 µM): 62.9%; viability, T/C (second compound 10 µM, first compound 0.1 µM): 62%; viability, T/C (second compound 10 µM, first compound 0.316 µM): 76.1%; viability, T/C (second compound 10 µM, first compound 1 µM): 68.5%; viability, T/C (second compound 10 µM, first compound 3.16 µM): 61.6%; viability, T/C (second compound 10 µM, first compound 10 µM): 47.7%

**Q.** CCN(c1cc(-c2ccc(CN3CCOCC3)cc2)cc(C(=O)NCc2c(C)cc(C)[nH]c2=O)c1C)C1CCOCC1 + Cc1ccccc1N=Nc1ccc(NC(=O)c2ccnn2C)c(C)c1 was tested. Which IC50 (second compound 0.1 µM) did it give?
**A.** > 3 µM

**Q.** What about the IC50 (second compound 0.316 µM) of the same molecule?
**A.** > 3 µM

**Q.** What about the IC50 (second compound 1 µM) of the same molecule?
**A.** > 3 µM

**Q.** What about the IC50 (second compound 3.16 µM) of the same molecule?
**A.** > 3 µM

**Q.** What about the IC50 (second compound 10 µM) of the same molecule?
**A.** > 3 µM

**Q.** And the viability, T/C [1]?
**A.** 97.5%

**Q.** What about the viability, T/C [2] of the same molecule?
**A.** 103%

**Q.** What about the viability, T/C [3] of the same molecule?
**A.** 94.1%

**Q.** And the viability, T/C [4]?
**A.** 99.4%

**Q.** What about the viability, T/C [5] of the same molecule?
**A.** 94.4%

**Q.** And the viability, T/C [6]?
**A.** 93%

**Q.** What about the viability, T/C [7] of the same molecule?
**A.** 106%

**Q.** And the viability, T/C [8]?
**A.** 107%

**Q.** What about the viability, T/C [9] of the same molecule?
**A.** 104%

**Q.** What about the viability, T/C [10] of the same molecule?
**A.** 111%

**Q.** And the viability, T/C [11]?
**A.** 108%

**Q.** What about the viability, T/C [12] of the same molecule?
**A.** 93.8%

**Q.** What about the viability, T/C [13] of the same molecule?
**A.** 99.9%

**Q.** What about the viability, T/C [14] of the same molecule?
**A.** 106%

**Q.** What about the viability, T/C [15] of the same molecule?
**A.** 104%

**Q.** What about the viability, T/C [16] of the same molecule?
**A.** 99.7%

**Q.** What about the viability, T/C [17] of the same molecule?
**A.** 102%

**Q.** And the viability, T/C [18]?
**A.** 94.9%

**Q.** And the viability, T/C [19]?
**A.** 95.3%

**Q.** And the viability, T/C [20]?
**A.** 88%

**Q.** And the viability, T/C [21]?
**A.** 98.6%

**Q.** And the viability, T/C [22]?
**A.** 83.2%

**Q.** What about the viability, T/C [23] of the same molecule?
**A.** 89.8%

**Q.** And the viability, T/C [24]?
**A.** 82.7%

**Q.** And the viability, T/C [25]?
**A.** 63.9%

**Q.** What about the viability, T/C [26] of the same molecule?
**A.** 67.5%

**Q.** What about the viability, T/C [27] of the same molecule?
**A.** 74%

**Q.** What about the viability, T/C [28] of the same molecule?
**A.** 66.8%

**Q.** And the viability, T/C [29]?
**A.** 64%

**Q.** What about the viability, T/C [30] of the same molecule?
**A.** 67%

**Q.** Which results are given for Nc1ncn(C2CC(O)C(CO)S2)c(=O)n1 (stereo not given) + Cc1ccccc1N=Nc1ccc(NC(=O)c2ccnn2C)c(C)c1?
**A.** IC50 (second compound 0.1 µM): > 0.3 µM; IC50 (second compound 0.316 µM): > 0.3 µM; IC50 (second compound 1 µM): > 0.3 µM; IC50 (second compound 3.16 µM): > 0.3 µM; IC50 (second compound 10 µM): > 0.3 µM; viability, T/C (second compound 0.1 µM, first compound 0.000949 µM): 103%; viability, T/C (second compound 0.1 µM, first compound 0.003 µM): 109%; viability, T/C [1]: 102%; viability, T/C [2]: 99.8%; viability, T/C [3]: 98.1%; viability, T/C [4]: 85%; viability, T/C (second compound 0.316 µM, first compound 0.000949 µM): 117%; viability, T/C (second compound 0.316 µM, first compound 0.003 µM): 101%; viability, T/C [7]: 103%; viability, T/C [8]: 102%; viability, T/C [9]: 94.3%; viability, T/C [10]: 96.5%; viability, T/C (second compound 1 µM, first compound 0.000949 µM): 106%; viability, T/C (second compound 1 µM, first compound 0.003 µM): 112%; viability, T/C [13]: 106%; viability, T/C [14]: 90.5%; viability, T/C [15]: 94.8%; viability, T/C [16]: 84%; viability, T/C (second compound 3.16 µM, first compound 0.000949 µM): 83%; viability, T/C (second compound 3.16 µM, first compound 0.003 µM): 98.8%; viability, T/C [19]: 94.7%; viability, T/C [20]: 83.9%; viability, T/C [21]: 90.7%; viability, T/C [22]: 87.2%; viability, T/C (second compound 10 µM, first compound 0.000949 µM): 65.3%; viability, T/C (second compound 10 µM, first compound 0.003 µM): 67%; viability, T/C [25]: 68%; viability, T/C [26]: 64%; viability, T/C [27]: 69.1%; viability, T/C [28]: 66.6%

**Q.** What does the source list for O=C(C=Cn1cnc(-c2cc(C(F)(F)F)cc(C(F)(F)F)c2)n1)NNc1cnccn1 + Cc1ccccc1N=Nc1ccc(NC(=O)c2ccnn2C)c(C)c1?
**A.** IC50 (second compound 0.1 µM): 0.177 µM; IC50 (second compound 0.316 µM): 0.184 µM; IC50 (second compound 1 µM): 0.165 µM; IC50 (second compound 3.16 µM): 0.171 µM; IC50 (second compound 10 µM): 0.0845 µM; viability, T/C [1]: 85%; viability, T/C [2]: 90.5%; viability, T/C [3]: 72.8%; viability, T/C [4]: 30.3%; viability, T/C [5]: 11.2%; viability, T/C [6]: 10.7%; viability, T/C [7]: 91.6%; viability, T/C [8]: 88.5%; viability, T/C [9]: 76.9%; viability, T/C [10]: 30.3%; viability, T/C [11]: 8.26%; viability, T/C [12]: 10.9%; viability, T/C [13]: 87%; viability, T/C [14]: 82.5%; viability, T/C [15]: 68.8%; viability, T/C [16]: 30.2%; viability, T/C [17]: 10.4%; viability, T/C [18]: 13.2%; viability, T/C [19]: 84%; viability, T/C [20]: 79.8%; viability, T/C [21]: 70.7%; viability, T/C [22]: 30.8%; viability, T/C [23]: 9.79%; viability, T/C [24]: 13%; viability, T/C [25]: 68%; viability, T/C [26]: 64.2%; viability, T/C [27]: 47%; viability, T/C [28]: 29.6%; viability, T/C [29]: 11.9%; viability, T/C [30]: 12.1%
